In US12649907B2, “Alternate detergents for viral inactivation” (AMGEN INC., priority 2019, dated 2026):

Tests used:
[1] = as indicated by the Hampton Kit; cited from earlier work
[2] = system: xMuLV; experiment: Concentration study, lowest concentration to inactivate virus; type: cell-based, xenotropic murine leukemia virus; details: 15° C., 30-minute incubation
[3] = system: xMuLV; experiment: Temperature-dependent study, TCID50 LRV in host cell culture fluid matrices; type: cell-based, xenotropic murine leukemia virus; details: for LRV BiTE ® / LRV fusion protein / LRV mAb: 30 minutes, 5× CMC
[4] = system: PRV; type: cell-based, pseudorabies herpes virus
[5] = system: MMV; experiment: Concentration study, lowest concentration to inactivate virus; type: cell-based, mouse minute virus
[6] = system: xMuLV; experiment: Kinetic study of detergents, TCID50 LRV in host cell culture fluid matrices; type: cell-based, xenotropic murine leukemia virus
[7] = system: xMuLV; type: cell-based, xenotropic murine leukemia virus; details: initial screen, 10× CMC or 10% w/v, 30 minutes, 15° C., 5% virus spike, PG4 cells

CC(C)CC(CC(C)C)O[C@@H]1O[C@H](CO)[C@@H](O[C@H]2O[C@H](CO)[C@@H](O)[C@H](O)[C@H]2O)[C@H](O)[C@H]1O [2,6-Dimethyl-4-heptyl-b-D-malto-pyranoside]
CMC [1]: 27.5 mM

CCCCCCCCCCO[C@@H]1O[C@H](CO)[C@@H](O[C@H]2O[C@H](CO)[C@@H](O)[C@H](O)[C@H]2O)[C@H](O)[C@H]1O [n-Decyl-b-D-maltoside]
CMC [1]: 1.8 mM

CCCCCCCCCCCC[N+](C)(C)CCCC(=O)[O-] [DDMAB]
CMC [1]: 4.3 mM

CCCCCCCCCS[C@@H]1O[C@H](CO)[C@@H](O[C@H]2O[C@H](CO)[C@@H](O)[C@H](O)[C@H]2O)[C@H](O)[C@H]1O [n-Nonyl-b-D-thiomaltoside]
CMC [1]: 3.2 mM

OC[C@H]1O[C@H](O[C@H]2[C@H](O)[C@@H](O)[C@H](OCCCCCCCC3CCCCC3)O[C@@H]2CO)[C@H](O)[C@@H](O)[C@@H]1O [CYMAL ®-7, 7-cyclohexyl-l-heptyl-β-D-maltoside]
CMC [1]: 0.19 mM

CCCCCCCNC(=O)OC[C@H]1O[C@H](OC)[C@H](O)[C@@H](O)[C@@H]1O [HECAMEG ®]
CMC [1]: 19.5 mM

C[C@H](CCC(=O)NCCC[N+](C)(C)CC(O)CS(=O)(=O)[O-])[C@H]1CC[C@H]2[C@@H]3[C@H](O)C[C@@H]4C[C@H](O)CC[C@]4(C)[C@H]3C[C@H](O)[C@]12C (some centres unmarked) [CHAPSO]
CMC [1]: 8 mM

CCCCCCCCCCCCO[C@@H]1O[C@H](CO)[C@@H](O[C@H]2O[C@H](CO)[C@@H](O)[C@H](O)[C@H]2O)[C@H](O)[C@H]1O [n-Dodecyl-b-D-maltoside]
CMC [1]: 0.17 mM

OC[C@H]1O[C@H](O[C@H]2[C@H](O)[C@@H](O)[C@H](OCCCC3CCCCC3)O[C@@H]2CO)[C@H](O)[C@@H](O)[C@@H]1O [CYMAL ®-3, 3-Cyclohexyl-1-Propyl-β-D-Maltoside]
CMC [1]: 34.5 mM

CCCCCCCCCCCCCOC1OC(CO)C(OC2OC(CO)C(O)C(O)C2O)C(O)C1O [n-Tridecyl-β-D-maltoside]
CMC [1]: 0.033 mM

CCCCCCCS[C@@H]1O[C@H](CO)[C@@H](O)[C@H](O)[C@H]1O [N-heptyl-β-D-thioglucopyranoside, Heptyl-β-D-1-thioglucopyranoside]
Cytopathic effects (CPE) at 2.5×CMC [2]: showed cytopathic effects (CPE) | LRV BiTE ® ([3]; 5° C.): ≥4.23 ± 0.33 | LRV fusion protein ([3]; 5° C.): ≥4.07 ± 0.30 | LRV mAb ([3]; 5° C.): ≥4.09 ± 0.25 | LRV BiTE ® ([3]; 15° C.): ≥4.03 ± 0.18 | LRV fusion protein ([3]; 15° C.): ≥4.16 ± 0.42 | LRV mAb ([3]; 15° C.): ≥4.22 ± 0.41 | Viral inactivation in the presence of therapeutic modalities ([3]; between 30 seconds and 30 minutes, temperatures as low as 5° C. and 15° C.): complete viral inactivation | Inactivation at 30 minutes at both 5° C. and 15° C. ([3]; mAb, BiTE ®, fusion protein matrices): complete inactivation | CMC [1]: 29 mM | Cytopathic effects (CPE) at 2.5×CMC [4]: showed cytopathic effects (CPE) | Cytopathic effects (CPE) at 2.5×CMC [5]: showed cytopathic effects (CPE) | LRV 30 s ([6]; BiTE ® #1, 15° C.): ≥3.03 ± 0.18 | LRV 10 min ([6]; BiTE ® #1, 15° C.): ≥3.03 ± 0.18 | LRV 30 min ([6]; BiTE ® #1, 15° C.): ≥3.03 ± 0.18 | LRV 30 s ([6]; fusion protein #1, 15° C.): ≥3.16 ± 0.42 | LRV 10 min ([6]; fusion protein #1, 15° C.): ≥3.16 ± 0.42 | LRV 30 min ([6]; fusion protein #1, 15° C.): ≥3.16 ± 0.42 | LRV 30 s ([6]; mAb #1, 15° C.): ≥3.22 ± 0.41 | LRV 10 min ([6]; mAb #1, 15° C.): ≥3.22 ± 0.41 | LRV 30 min ([6]; mAb #1, 15° C.): ≥3.22 ± 0.41

O=C(CCCC1CCCCC1)N(CCO)CC(O)C(O)C(O)C(O)CO (centres unmarked) [C-HEGA ®-10]
CMC [1]: 35 mM

C[C@H](CCC(=O)NCCC[N+](C)(C)CCCS(=O)(=O)[O-])[C@H]1CC[C@H]2[C@@H]3[C@H](O)C[C@@H]4C[C@H](O)CC[C@]4(C)[C@H]3C[C@H](O)[C@]12C [CHAPS]
CMC [1]: 8 mM

CCCCCCCCCCOP(=O)(O)OCCNC [FOS-MEA ®-10]
CMC [1]: 5.25 mM

n-Decanoylsucrose
CMC [1]: 2.5 mM

CCCCCCCCCO[C@@H]1O[C@H](CO)[C@@H](O)[C@H](O)[C@H]1O [n-Nonyl-b-D-glucoside]
CMC [1]: 6.5 mM

O=C(CCC1CCCCC1)N(CCO)C[C@H](O)[C@@H](O)[C@H](O)[C@H](O)CO [C-HEGA ®-9]
CMC [1]: 108 mM

CCCCCCCCCC(=O)N(C)C[C@H](O)[C@@H](O)[C@H](O)[C@H](O)CO [MEGA-10]
CMC [1]: 7 mM

CCCCCCCC(=O)N(CCO)C[C@H](O)[C@@H](O)[C@H](O)[C@H](O)CO [HEGA ®-8]
CMC [1]: 109 mM

OC[C@H]1O[C@H](O[C@H]2[C@H](O)[C@@H](O)[C@H](OCCCCCCC3CCCCC3)O[C@@H]2CO)[C@H](O)[C@@H](O)[C@@H]1O [CYMAL ®-6, 6-cyclohexyl-1-hexyl-β-D-maltoside]
CMC [1]: 0.56 mM

CCCCCCCCC(=O)N(CCO)C[C@H](O)[C@@H](O)[C@H](O)[C@H](O)CO [HEGA ®-9]
CMC [1]: 39 mM

OC[C@H]1O[C@H](O[C@H]2[C@H](O)[C@@H](O)[C@H](OCCCCCC3CCCCC3)O[C@@H]2CO)[C@H](O)[C@@H](O)[C@@H]1O [CYMAL ®-5, 5-cyclohexylpentyl-β-D-maltoside]
Cytopathic effects (CPE) at 2.5×CMC [2]: showed cytopathic effects (CPE) | LRV BiTE ® ([3]; 15° C.): −0.06 ± 0.69 | LRV fusion protein ([3]; 15° C.): 0.62 ± 0.48 | LRV mAb ([3]; 15° C.): 0.62 ± 0.50 | increase in LRV at higher temperature (22° C.) ([3]; 22° C. versus 15° C.): ~1 log | LRV BiTE ® ([3]; 22° C.): 1.19 ± 0.29 | LRV fusion protein ([3]; 22° C.): 1.01 ± 0.45 | LRV mAb ([3]; 22° C.): 1.94 ± 0.52 | Inactivation towards xMuLV at any temperature tested ([3]; in product matrices): did not yield significant inactivation | average LRV ([3]; process temperature of 15° C., average over modalities): 0.39 | CMC [1]: 5 mM | Cytopathic effects (CPE) at 2.5×CMC [4]: showed cytopathic effects (CPE) | Cytopathic effects (CPE) at 2.5×CMC [5]: showed cytopathic effects (CPE) | Clearance of xMuLV within 30 minutes ([6]; 15° C.): did not lead to robust clearance | LRV 30 s ([6]; BiTE ® #1, 15° C.): 0.19 ± 0.69 | LRV 10 min ([6]; BiTE ® #1, 15° C.): 0.06 ± 0.58 | LRV 30 min ([6]; BiTE ® #1, 15° C.): −0.06 ± 0.69 | LRV 30 s ([6]; fusion protein #1, 15° C.): −0.06 ± 0.69 | LRV 10 min ([6]; fusion protein #1, 15° C.): 0.31 ± 0.52 | LRV 30 min ([6]; fusion protein #1, 15° C.): 0.62 ± 0.48 | LRV 30 s ([6]; mAb #1, 15° C.): 0.25 ± 0.58 | LRV 10 min ([6]; mAb #1, 15° C.): 0.12 ± 0.58 | LRV 30 min ([6]; mAb #1, 15° C.): 0.62 ± 0.50

CCCCCCCCCC(=O)N(CCO)C[C@H](O)[C@@H](O)[C@H](O)[C@H](O)CO [HEGA ®-10]
CMC [1]: 7 mM

CCCCCCCCOCCOCCOCCOCCOCCOCCO [Hexaethylene glycol monooctyl ether]
CMC [1]: 10 mM

OC[C@H]1O[C@H](O[C@H]2[C@H](O)[C@@H](O)[C@H](OCCCCC3CCCCC3)O[C@@H]2CO)[C@H](O)[C@@H](O)[C@@H]1O [CYMAL ®-4, 4-Cyclohexyl-1-Butyl-β-D-Maltoside]
CMC [1]: 7.6 mM

CCCCCCCCS[C@@H]1O[C@H](CO)[C@@H](O[C@H]2O[C@H](CO)[C@@H](O)[C@H](O)[C@H]2O)[C@H](O)[C@H]1O [n-Octyl-β-D-Thiomaltopyranoside]
CMC [1]: 8.8 mM

CCCCCCCCCCCO[C@@H]1O[C@H](CO)[C@@H](O[C@H]2O[C@H](CO)[C@@H](O)[C@H](O)[C@H]2O)[C@H](O)[C@H]1O [n-Undecyl-b-D-maltoside]
CMC [1]: 0.59 mM

CCCCCCCCCCOCCOCCOCCOCCOCCOCCO [Anapoe C10E6]
Viral inactivation towards xMuLV (CPE) [7]: did not

CCCCCCCCCCCCCC(=O)OC[C@@H](O)COP(=O)([O-])OCC[N+](C)(C)C [LysoFos ™ Choline 14]
CMC [1]: 0.036 mM

CCCCCCCCOCCOCCOCCOCCOCCO [Detergent C8E5]
CMC [1]: 7.1 mM

CCCCCCCCC(=O)N(C)C[C@H](O)[C@@H](O)[C@H](O)[C@H](O)CO [MEGA-9]
CMC [1]: 25 mM

CCCCCCCCCCCC(=O)OC[C@@H](O)COP(=O)([O-])OCC[N+](C)(C)C [LysoFos ™ Choline 12]
CMC [1]: 0.7 mM

CCCCCCCCCCCCOCCOCCOCCOCCOCCOCCOCCOCCOCCOCCO [Anapoe C12E10]
Viral inactivation towards xMuLV (CPE) [7]: did not

O=C(CCCCC1CCCCC1)N(CCO)CC(O)C(O)C(O)C(O)CO (centres unmarked) [C-HEGA ®-11]
CMC [1]: 11.5 mM

CCCCCCCC(=O)N(C)C[C@H](O)[C@@H](O)[C@H](O)[C@H](O)CO [MEGA-8]
CMC [1]: 79 mM

CCCCCCCCO[C@@H]1O[C@H](CO)[C@@H](O)[C@H](O)[C@H]1O [n-Octyl-b-D-glucoside]
CMC [1]: 20 mM

CCCCCCCCS[C@@H]1O[C@H](CO)[C@@H](O)[C@H](O)[C@H]1O [n-Octyl-β-D-Thioglucoside]
CMC [1]: 9 mM

CCCCCCCCCCCCCOCCOCCOCCOCCOCCOCCOCCOCCO [Anapoe C13E8]
Viral inactivation towards xMuLV (CPE) [7]: did not

CCCCCCCCCO[C@@H]1O[C@H](CO)[C@@H](O[C@H]2O[C@H](CO)[C@@H](O)[C@H](O)[C@H]2O)[C@H](O)[C@H]1O [n-Nonyl-b-D-maltoside]
CMC [1]: 6 mM

Sucrose monolaurate
CMC [1]: 0.3 mM

CCCCCCCCCCOCCOCCOCCOCCOCCOCCOCCOCCOCCO [Anapoe C10E9]
Viral inactivation towards xMuLV (CPE) [7]: did not

CCCCCCCC[N+](C)(C)CCCS(=O)(=O)[O-] [ZWITTERGENT ® 3-08]
CMC [1]: 330 mM

CCCCCCO[C@@H]1O[C@H](CO)[C@@H](O)[C@H](O)[C@H]1O [n-Hexyl-b-D-glucopyranoside]
CMC [1]: 250 mM

CCCCCCCCOCCOCCOCCOCCO [Detergent C8E4]
CMC [1]: 8 mM
